Measured values from patent US10106538B2, “Inhibitors of protein kinases” (PRINCETON DRUG DISCOVERY INC, priority 2015, dated 2018).

Key:
Experiment in all cases: Off-chip Mobility Shift Assay (MSA) kinase inhibition
Assay type in all cases: biochemical
[1] = molecular target: T1, MET (Homo sapiens, UniProt P08581)
T1 construct: purchased Carna Biosciences
Procedure: (§1) Off-chip Mobility Shift Assay (MSA) by Cama Biosciences, Inc (Natick, Mass.) a used for measuring the kinase activity and inhibition. • 1) The 5 μL of x4 compound solution, 5 μL of x4 Substrate/ATP/Metal solution, and 10 μL of x2 kinase solution were prepared with assay buffer (20 mM HEPES, 0.01% Triton X100, 2 mM DTT, pH 7.5) and mixed and incubated in a well of polypropylene 384 well microplate for 1 or 5 hour(s)* at room temperature.

[2] = molecular target: T2, JAK1 (Homo sapiens, UniProt P23458); conditions: for inhibition at 0.1 µM: inhibitor concentration 0.1 μM
T2 construct: purchased Carna Biosciences
T2 sequence (P23458 whole entry): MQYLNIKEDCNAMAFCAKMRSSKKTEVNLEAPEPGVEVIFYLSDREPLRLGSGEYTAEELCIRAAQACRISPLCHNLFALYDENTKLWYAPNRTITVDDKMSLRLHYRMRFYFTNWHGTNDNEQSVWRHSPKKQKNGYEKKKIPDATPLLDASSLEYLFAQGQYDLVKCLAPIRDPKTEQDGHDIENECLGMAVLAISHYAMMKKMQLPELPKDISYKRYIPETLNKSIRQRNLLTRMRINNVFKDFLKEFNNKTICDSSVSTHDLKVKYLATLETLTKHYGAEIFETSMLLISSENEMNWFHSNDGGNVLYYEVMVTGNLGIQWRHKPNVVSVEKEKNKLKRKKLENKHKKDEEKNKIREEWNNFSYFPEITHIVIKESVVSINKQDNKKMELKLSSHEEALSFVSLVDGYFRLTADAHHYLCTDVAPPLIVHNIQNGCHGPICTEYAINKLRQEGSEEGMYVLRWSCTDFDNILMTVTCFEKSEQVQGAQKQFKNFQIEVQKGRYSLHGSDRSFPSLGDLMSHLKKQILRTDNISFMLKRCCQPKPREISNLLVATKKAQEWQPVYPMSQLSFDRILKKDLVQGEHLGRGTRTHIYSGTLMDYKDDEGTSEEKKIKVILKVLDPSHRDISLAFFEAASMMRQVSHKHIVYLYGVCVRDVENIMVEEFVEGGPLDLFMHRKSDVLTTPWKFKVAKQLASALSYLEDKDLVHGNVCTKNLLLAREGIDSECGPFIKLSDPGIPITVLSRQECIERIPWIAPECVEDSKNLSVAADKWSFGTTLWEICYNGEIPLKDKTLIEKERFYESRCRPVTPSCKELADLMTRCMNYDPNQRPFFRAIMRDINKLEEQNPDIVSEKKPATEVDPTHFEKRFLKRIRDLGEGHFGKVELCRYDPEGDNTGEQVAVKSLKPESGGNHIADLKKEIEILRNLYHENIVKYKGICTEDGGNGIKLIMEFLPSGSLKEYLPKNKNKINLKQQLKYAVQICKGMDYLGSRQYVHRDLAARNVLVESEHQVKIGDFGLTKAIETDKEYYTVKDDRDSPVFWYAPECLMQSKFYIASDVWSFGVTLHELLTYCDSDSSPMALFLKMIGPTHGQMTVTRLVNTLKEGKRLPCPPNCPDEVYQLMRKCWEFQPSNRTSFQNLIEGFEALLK
Procedure: as §1

[3] = molecular target: T3, AKT1 (Homo sapiens, UniProt P31749); conditions: inhibitor concentration 0.1 μM
T3 construct: purchased Carna Biosciences
Procedure: as §1

[4] = molecular target: T4, HER4 (Homo sapiens, UniProt Q15303)
T4 construct: purchased Carna Biosciences
Procedure: as §1

[5] = molecular target: T5, BRAF (Homo sapiens, UniProt P15056)
T5 construct: purchased Carna Biosciences
Procedure: as §1

[6] = molecular target: T6, HER2 (Homo sapiens, UniProt P04626)
T6 construct: purchased Carna Biosciences
Procedure: as §1

[7] = molecular target: T7, BTK (Homo sapiens, UniProt Q06187); conditions: for inhibition at 0.1 µM: inhibitor concentration 0.1 μM
T7 construct: purchased Carna Biosciences
T7 sequence (Q06187 whole entry): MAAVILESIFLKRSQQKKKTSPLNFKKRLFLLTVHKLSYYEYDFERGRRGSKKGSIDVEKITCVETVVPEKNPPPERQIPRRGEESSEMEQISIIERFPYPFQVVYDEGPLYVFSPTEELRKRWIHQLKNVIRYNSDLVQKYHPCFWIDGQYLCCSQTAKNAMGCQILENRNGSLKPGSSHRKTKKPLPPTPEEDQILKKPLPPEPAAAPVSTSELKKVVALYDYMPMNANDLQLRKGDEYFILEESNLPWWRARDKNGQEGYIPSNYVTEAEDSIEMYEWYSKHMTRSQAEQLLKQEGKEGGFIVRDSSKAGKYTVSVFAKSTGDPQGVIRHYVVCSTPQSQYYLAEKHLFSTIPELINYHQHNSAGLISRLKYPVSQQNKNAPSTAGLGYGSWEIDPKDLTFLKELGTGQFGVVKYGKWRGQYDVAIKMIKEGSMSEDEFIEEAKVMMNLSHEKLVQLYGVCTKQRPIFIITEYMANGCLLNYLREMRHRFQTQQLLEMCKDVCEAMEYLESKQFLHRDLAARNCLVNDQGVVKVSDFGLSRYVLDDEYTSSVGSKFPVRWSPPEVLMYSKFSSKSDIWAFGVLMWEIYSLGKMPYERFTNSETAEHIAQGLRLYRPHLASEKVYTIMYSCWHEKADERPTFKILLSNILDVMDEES
Procedure: as §1

[8] = molecular target: T8, LYNb (Homo sapiens, UniProt P07948); conditions: for inhibition at 0.1 µM: inhibitor concentration 0.1 μM
T8 construct: purchased Carna Biosciences
T8 sequence (P07948 1-491 isoform P07948-2): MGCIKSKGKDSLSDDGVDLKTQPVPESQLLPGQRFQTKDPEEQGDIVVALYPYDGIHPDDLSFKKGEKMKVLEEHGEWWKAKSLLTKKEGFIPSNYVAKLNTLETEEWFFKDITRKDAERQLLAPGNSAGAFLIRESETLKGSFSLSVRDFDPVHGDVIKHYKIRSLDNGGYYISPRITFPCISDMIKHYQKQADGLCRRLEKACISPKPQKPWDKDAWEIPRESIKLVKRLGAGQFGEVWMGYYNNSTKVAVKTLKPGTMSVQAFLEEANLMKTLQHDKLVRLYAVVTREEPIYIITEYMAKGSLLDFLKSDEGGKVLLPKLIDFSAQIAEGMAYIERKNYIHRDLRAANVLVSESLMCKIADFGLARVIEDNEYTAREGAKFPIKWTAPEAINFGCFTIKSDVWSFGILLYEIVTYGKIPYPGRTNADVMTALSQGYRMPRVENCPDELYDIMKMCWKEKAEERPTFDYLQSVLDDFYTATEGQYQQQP
Procedure: as §1

[9] = molecular target: T9, ABL(T315I) (Homo sapiens, UniProt P00519, T315I); conditions: inhibitor concentration 0.1 μM
T9 construct: purchased Carna Biosciences
Procedure: as §1

[10] = molecular target: T10, JAK2 (Homo sapiens, UniProt O60674); conditions: for inhibition at 0.1 µM: inhibitor concentration 0.1 μM
T10 construct: purchased Carna Biosciences
Procedure: as §1

[11] = molecular target: T11, Erk5 (Homo sapiens, UniProt Q13164)
T11 construct: purchased Carna Biosciences
Procedure: as §1

[12] = molecular target: T12, PIM3 (Homo sapiens, UniProt Q86V86); conditions: inhibitor concentration 0.1 μM
T12 construct: purchased Carna Biosciences
Procedure: as §1

[13] = molecular target: T13, BRK (Homo sapiens, UniProt Q13882); conditions: for inhibition at 0.1 µM: inhibitor concentration 0.1 μM
T13 construct: purchased Carna Biosciences
T13 sequence (Q13882 whole entry): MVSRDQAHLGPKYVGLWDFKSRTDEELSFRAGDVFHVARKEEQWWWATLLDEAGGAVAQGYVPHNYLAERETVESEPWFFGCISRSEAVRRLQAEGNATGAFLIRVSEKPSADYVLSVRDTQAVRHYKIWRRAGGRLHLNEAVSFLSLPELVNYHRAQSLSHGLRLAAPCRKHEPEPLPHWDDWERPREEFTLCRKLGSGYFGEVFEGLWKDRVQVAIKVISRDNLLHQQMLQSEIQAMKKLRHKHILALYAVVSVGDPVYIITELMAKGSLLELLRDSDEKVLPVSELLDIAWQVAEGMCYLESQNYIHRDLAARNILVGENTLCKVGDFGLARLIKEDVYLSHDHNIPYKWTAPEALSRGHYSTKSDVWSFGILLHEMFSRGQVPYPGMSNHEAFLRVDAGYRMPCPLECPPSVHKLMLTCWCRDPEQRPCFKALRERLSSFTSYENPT
Procedure: as §1

[14] = molecular target: T14, KDR (Homo sapiens, UniProt P35968); conditions: for inhibition at 0.1 µM: inhibitor concentration 0.1 μM
T14 construct: purchased Carna Biosciences
Procedure: as §1

[15] = molecular target: T15, JNK3 (Homo sapiens, UniProt P53779); conditions: inhibitor concentration 0.1 μM
T15 construct: purchased Carna Biosciences, Inc
Procedure: as §1

[16] = molecular target: T16, PDGFRβ (Homo sapiens, UniProt P09619); conditions: for inhibition at 0.1 µM: inhibitor concentration 0.1 μM
T16 construct: purchased Carna Biosciences
Procedure: as §1

[17] = molecular target: T17, RAF1 (Homo sapiens, UniProt P04049)
T17 construct: purchased Carna Biosciences
Procedure: as §1

[18] = molecular target: T18, MAP2K1 (Homo sapiens, UniProt Q02750)
T18 construct: purchased Carna Biosciences
Procedure: as §1

[19] = molecular target: T19, MNK2 (Homo sapiens, UniProt Q9HBH9)
T19 construct: purchased Carna Biosciences
Procedure: as §1

[20] = molecular target: T20, FGFR3 (Homo sapiens, UniProt P22607)
T20 construct: purchased Carna Biosciences
Procedure: as §1

[21] = molecular target: T21, RET (Homo sapiens, UniProt P07949); conditions: for inhibition at 0.1 µM: inhibitor concentration 0.1 μM
T21 construct: purchased Carna Biosciences
T21 sequence (P07949 29-1114): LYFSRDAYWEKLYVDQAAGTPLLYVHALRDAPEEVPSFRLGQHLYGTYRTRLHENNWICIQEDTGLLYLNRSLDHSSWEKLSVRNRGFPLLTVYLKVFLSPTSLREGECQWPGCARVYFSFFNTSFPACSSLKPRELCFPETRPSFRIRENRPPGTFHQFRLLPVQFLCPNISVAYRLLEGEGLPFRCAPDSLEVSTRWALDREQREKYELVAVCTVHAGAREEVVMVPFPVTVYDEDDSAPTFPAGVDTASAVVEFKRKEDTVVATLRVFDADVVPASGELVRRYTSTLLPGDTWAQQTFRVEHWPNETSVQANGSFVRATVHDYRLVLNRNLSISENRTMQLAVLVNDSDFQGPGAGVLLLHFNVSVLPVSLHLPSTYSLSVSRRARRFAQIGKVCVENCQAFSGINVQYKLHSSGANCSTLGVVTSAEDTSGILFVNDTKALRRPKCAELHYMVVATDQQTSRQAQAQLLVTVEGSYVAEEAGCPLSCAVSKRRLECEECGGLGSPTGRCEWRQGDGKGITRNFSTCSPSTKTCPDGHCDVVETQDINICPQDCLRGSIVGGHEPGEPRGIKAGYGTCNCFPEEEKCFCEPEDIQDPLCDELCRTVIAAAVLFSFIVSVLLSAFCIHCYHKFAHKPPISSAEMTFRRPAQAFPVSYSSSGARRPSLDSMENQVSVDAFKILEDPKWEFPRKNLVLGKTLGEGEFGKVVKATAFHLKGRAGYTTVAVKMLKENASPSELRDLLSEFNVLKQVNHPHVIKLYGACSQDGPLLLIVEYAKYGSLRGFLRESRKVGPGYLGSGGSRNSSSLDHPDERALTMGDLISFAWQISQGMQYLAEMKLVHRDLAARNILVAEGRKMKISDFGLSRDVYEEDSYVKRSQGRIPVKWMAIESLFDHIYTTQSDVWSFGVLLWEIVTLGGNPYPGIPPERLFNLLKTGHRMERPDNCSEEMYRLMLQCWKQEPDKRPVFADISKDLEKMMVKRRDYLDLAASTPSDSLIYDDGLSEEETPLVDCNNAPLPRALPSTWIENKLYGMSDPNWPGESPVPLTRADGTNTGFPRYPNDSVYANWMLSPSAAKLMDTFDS
Procedure: as §1

[22] = molecular target: T22, FGFR2 (Homo sapiens, UniProt P21802)
T22 construct: purchased Carna Biosciences
Procedure: as §1

[23] = molecular target: T23, PIM2 (Homo sapiens, UniProt Q9P1W9); conditions: inhibitor concentration 0.1 μM
T23 construct: purchased Carna Biosciences
Procedure: as §1

[24] = molecular target: T24, AurA (Homo sapiens, UniProt O14965)
T24 construct: purchased Carna Biosciences
T24 sequence (O14965 1-403): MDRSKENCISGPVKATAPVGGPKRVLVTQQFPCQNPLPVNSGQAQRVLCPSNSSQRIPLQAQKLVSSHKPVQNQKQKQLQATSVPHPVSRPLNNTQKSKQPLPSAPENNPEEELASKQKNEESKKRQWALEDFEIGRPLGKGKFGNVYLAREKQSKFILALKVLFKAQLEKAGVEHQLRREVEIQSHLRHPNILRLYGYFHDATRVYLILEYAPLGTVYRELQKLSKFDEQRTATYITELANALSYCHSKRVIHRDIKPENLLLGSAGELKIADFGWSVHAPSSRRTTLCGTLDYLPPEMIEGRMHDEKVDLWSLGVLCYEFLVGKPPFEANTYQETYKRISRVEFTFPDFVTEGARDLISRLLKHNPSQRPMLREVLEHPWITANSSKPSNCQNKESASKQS
Procedure: as §1

[25] = molecular target: T25, MNK1 (Homo sapiens, UniProt Q9BUB5)
T25 construct: purchased Carna Biosciences
Procedure: as §1

[26] = molecular target: T26, KIT(D816V) (Homo sapiens, UniProt P10721, D816V)
T26 construct: purchased Carna Biosciences
Procedure: as §1

[27] = molecular target: T27, PDGFRα (Homo sapiens, UniProt P16234); conditions: for inhibition at 0.1 µM: inhibitor concentration 0.1 μM
T27 construct: purchased Carna Biosciences
T27 sequence (P16234 24-1089): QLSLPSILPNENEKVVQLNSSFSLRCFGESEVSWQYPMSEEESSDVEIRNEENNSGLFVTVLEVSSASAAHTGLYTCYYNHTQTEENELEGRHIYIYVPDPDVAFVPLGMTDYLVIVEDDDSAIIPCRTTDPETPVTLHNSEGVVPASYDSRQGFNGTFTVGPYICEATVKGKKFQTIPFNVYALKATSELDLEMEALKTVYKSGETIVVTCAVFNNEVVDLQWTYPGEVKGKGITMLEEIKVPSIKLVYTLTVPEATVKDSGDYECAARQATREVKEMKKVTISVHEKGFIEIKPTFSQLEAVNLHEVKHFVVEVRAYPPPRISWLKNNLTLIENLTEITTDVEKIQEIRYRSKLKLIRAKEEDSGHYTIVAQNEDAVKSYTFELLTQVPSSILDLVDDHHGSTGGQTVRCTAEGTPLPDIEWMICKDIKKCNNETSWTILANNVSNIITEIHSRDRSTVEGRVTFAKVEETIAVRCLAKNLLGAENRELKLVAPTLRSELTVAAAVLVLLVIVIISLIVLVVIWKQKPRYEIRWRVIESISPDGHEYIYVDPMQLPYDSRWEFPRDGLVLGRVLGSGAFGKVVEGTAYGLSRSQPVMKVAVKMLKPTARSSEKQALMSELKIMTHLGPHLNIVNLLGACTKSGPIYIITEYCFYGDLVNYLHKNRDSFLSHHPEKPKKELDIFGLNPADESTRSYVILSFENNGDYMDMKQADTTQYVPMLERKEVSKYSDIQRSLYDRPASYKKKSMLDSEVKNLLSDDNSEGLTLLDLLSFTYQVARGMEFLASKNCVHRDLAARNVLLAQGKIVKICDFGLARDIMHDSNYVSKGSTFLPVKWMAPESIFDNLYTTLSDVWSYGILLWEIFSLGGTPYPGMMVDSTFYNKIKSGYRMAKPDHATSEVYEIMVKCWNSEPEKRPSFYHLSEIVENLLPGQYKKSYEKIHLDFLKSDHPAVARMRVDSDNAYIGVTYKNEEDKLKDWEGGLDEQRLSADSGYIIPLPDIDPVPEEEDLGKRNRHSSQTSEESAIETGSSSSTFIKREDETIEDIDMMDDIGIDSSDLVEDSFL
Procedure: as §1

[28] = inhibitor concentration 0.01 μM

O=C(c1c(F)ccc(NS(=O)(=O)CC(O)CO)c1F)c1c[nH]c2ncc(-c3ccc(Cl)cc3)cc12 (stereo not drawn) [200-73, N-[3-[5-(4-chlorophenyl)-lH-pyrrolo [2,3-b]pyridine-3-carbonyl]-2,4-difluorophenyl]-2,3-dihydroxypropane-l-sulfonamide]
inhibition at 0.1 µM ([1]; inhibitor concentration 0.1 μM): < 30%
inhibition at 0.1 µM [2]: > 30%
inhibition at 0.1 µM [3]: < 30%
inhibition at 0.1 µM ([4]; inhibitor concentration 0.1 μM): < 30%
inhibition at 0.1 µM ([5]; inhibitor concentration 0.1 μM): < 30%
inhibition at 0.1 µM ([6]; inhibitor concentration 0.1 μM): < 30%
inhibition at 0.1 µM [7]: < 30%
inhibition at 0.1 µM [8]: < 30%
inhibition at 0.1 µM [9]: < 30%
inhibition at 0.1 µM [10]: < 30%
inhibition at 0.1 µM ([11]; inhibitor concentration 0.1 μM): < 30%
inhibition at 0.1 µM [12]: < 30%
inhibition at 0.1 µM [13]: > 30%
inhibition at 0.1 µM [14]: < 30%
inhibition at 0.1 µM [15]: < 30%
inhibition at 0.1 µM [16]: < 30%
inhibition at 0.1 µM ([17]; inhibitor concentration 0.1 μM): > 30%
inhibition at 0.1 µM ([18]; inhibitor concentration 0.1 μM): < 30%
inhibition at 0.1 µM ([19]; inhibitor concentration 0.1 μM): < 30%
inhibition at 0.1 µM ([20]; inhibitor concentration 0.1 μM): < 30%
inhibition at 0.1 µM [21]: < 30%
inhibition at 0.1 µM ([22]; inhibitor concentration 0.1 μM): < 30%
inhibition at 0.1 µM [23]: < 30%
inhibition at 0.1 µM ([24]; inhibitor concentration 0.1 μM): < 30%
inhibition at 0.1 µM ([25]; inhibitor concentration 0.1 μM): < 30%
inhibition at 0.1 µM ([26]; inhibitor concentration 0.1 μM): < 30%
inhibition at 0.1 µM [27]: < 30%

O=C(c1c(F)ccc(NS(=O)(=O)CCCO)c1F)c1c[nH]c2ncc(-c3ccc(Cl)cc3)cc12 [200-17, N-[3-[5-(4-chlorophenyl)-1H-pyrrolo[2,3-b]pyridine-3-carbonyl]-2,4-difluorophenyl]-3-hydroxypropane-1-sulfonamide]
inhibition at 1 µM ([1]; inhibitor concentration 1 μM): > 50%
inhibition at 0.01 µM [2, 28]: > 30%
inhibition at 0.1 µM [2]: > 50%
inhibition at 1 µM ([2]; inhibitor concentration 1 μM): > 50%
inhibition at 1 µM ([4]; inhibitor concentration 1 μM): > 50%
inhibition at 1 µM ([5]; inhibitor concentration 1 μM): < 50%
inhibition at 1 µM ([6]; inhibitor concentration 1 μM): < 50%
inhibition at 0.01 µM [7, 28]: < 30%
inhibition at 0.1 µM [7]: < 50%
inhibition at 1 µM ([7]; inhibitor concentration 1 μM): < 50%
inhibition at 0.01 µM [8, 28]: < 30%
inhibition at 0.1 µM [8]: > 50%
inhibition at 1 µM ([8]; inhibitor concentration 1 μM): > 50%
inhibition at 0.01 µM [10, 28]: < 30%
inhibition at 0.1 µM [10]: > 50%
inhibition at 1 µM ([10]; inhibitor concentration 1 μM): > 50%
inhibition at 1 µM ([11]; inhibitor concentration 1 μM): > 50%
inhibition at 0.01 µM [13, 28]: > 30%
inhibition at 0.1 µM [13]: > 50%
inhibition at 1 µM ([13]; inhibitor concentration 1 μM): > 50%
inhibition at 0.01 µM [14, 28]: < 30%
inhibition at 0.1 µM [14]: > 50%
inhibition at 1 µM ([14]; inhibitor concentration 1 μM): > 50%
inhibition at 0.01 µM [16, 28]: < 30%
inhibition at 0.1 µM [16]: < 50%
inhibition at 1 µM ([16]; inhibitor concentration 1 μM): > 50%
inhibition at 1 µM ([17]; inhibitor concentration 1 μM): > 50%
inhibition at 1 µM ([18]; inhibitor concentration 1 μM): < 50%
inhibition at 1 µM ([19]; inhibitor concentration 1 μM): > 50%
inhibition at 1 µM ([20]; inhibitor concentration 1 μM): > 50%
inhibition at 0.01 µM [21, 28]: < 30%
inhibition at 0.1 µM [21]: < 50%
inhibition at 1 µM ([21]; inhibitor concentration 1 μM): > 50%
inhibition at 1 µM ([22]; inhibitor concentration 1 μM): > 50%
inhibition at 1 µM ([24]; inhibitor concentration 1 μM): > 50%
inhibition at 1 µM ([25]; inhibitor concentration 1 μM): > 50%
inhibition at 1 µM ([26]; inhibitor concentration 1 μM): > 50%
inhibition at 0.01 µM [27, 28]: < 30%
inhibition at 0.1 µM [27]: > 50%
inhibition at 1 µM ([27]; inhibitor concentration 1 μM): > 50%
